{"source": "paper PMC5920042", "about": "“KH176 Safeguards Mitochondrial Diseased Cells from Redox Stress-Induced Cell Death by Interacting with the Thioredoxin System/Peroxiredoxin Enzyme Machinery” (Scientific Reports, 2018)", "key": {"P4 cell line [1]": {"tested_on": "P4 cell line", "assay": "Redox Stress Survival assay (BSO-induced cell death, Calcein AM viability)", "format": "cell-based, human", "details": "P4 cells", "description": "(§1) Cells were seeded at a density of 4 × 10^3 cells/well into 96-wells black plates and incubated for 24 h. To induce redox stress, semi-logarithmic dilutions of buthionine sulphoximine (BSO, #B2515, Sigma Aldrich) up to 100 µM were added to the cells in culture medium and incubated for 24 h. Cell viability was assessed by quantification of cellular conversion of Calcein AM into fluorescent Calcein. Briefly, after having discarded the BSO containing medium, cells were washed once with M199 without phenol red and loaded with 2 µM Calcein AM (#65-0853-39, Affimetrix eBioscience) in M199 without phenol red for 25 min. At the end of the incubation period, the excess of the dye was washed with M199 without phenol red and Calcein fluorescence was measured with a scanning microplate reader (BMG FLUOstar Omega; Ex. 480 nm, Em. 520 nm). For compound screening and target identification measurements cells were treated with 200 µM BSO alone or in co-incubation with semi-logarithmic dilutions of the test compound. Additionally, where indicated, increasing doses of Auranofin (AFN, #BML-EI206-0100, Enzo) or Aurothioglucose (ATG, #A0606, Sigma Aldrich) were co-incubated with BSO and the test compound. In all cases, cell viability was assessed 24 h after the treatment."}, "C1 control cell line": {"tested_on": "C1 control cell line", "assay": "Redox Stress Survival assay (BSO sensitivity)", "format": "cell-based, human", "details": "C1, 24 h", "description": "as §1"}, "C2 control cell line": {"tested_on": "C2 control cell line", "assay": "Redox Stress Survival assay (BSO sensitivity)", "format": "cell-based, human", "details": "C2, 24 h", "description": "as §1"}, "C3 control cell line": {"tested_on": "C3 control cell line", "assay": "Redox Stress Survival assay (BSO sensitivity)", "format": "cell-based, human", "details": "C3, 24 h", "description": "as §1"}, "[2]": {"tested_on": "P2 cell line (Complex I, NDUFS2)", "assay": "Redox Stress Survival assay (BSO sensitivity)", "format": "cell-based, human", "details": "P2, 24 h", "description": "as §1"}, "[3]": {"tested_on": "P6 cell line (Complex I, NDUFS8)", "assay": "Redox Stress Survival assay (BSO sensitivity)", "format": "cell-based, human", "details": "P6, 24 h", "description": "as §1"}, "P4 cell line [4]": {"tested_on": "P4 cell line", "assay": "Cellular ROS assay (DCFH-DA)", "format": "cell-based, human", "description": "The cells were then treated for 72 h (or shorter as indicated) with culture medium containing semi-logarithmic dilutions of the test compound. Alternatively, 3 × 10^3 cells/well were seeded when cells were treated for 24 h only. At the end of the incubation period, cells were loaded with 40 µM DCFH-DA (#D6883, Sigma-Aldrich). in M199 without phenol red for 30 min. The excess of the dye was washed with ice-cold M199 without phenol red and the cells were lysed with 100 µl/well of ice-cold 0.2% Triton X-100 in M199 without phenol red after 10 min incubation in ice. Cellular debris was spun down by centrifugation at 2600 g, 5 min, +4 °C and 90 µl/well of cell lysate were transferred to a black 96-wells plate and DCF fluorescence was measured on a scanning microplate reader (BMG FLUOstar Omega; Ex. 480 nm, Em. 520 nm)."}, "P4 cell line [5]": {"tested_on": "P4 cell line", "assay": "Radical-Scavenging Capacity assay (CM-H2DCFDA, H2O2 or KO2)", "format": "cell-based, human", "details": "P4 cells, 100 µM H2O2 or 1 mM KO2 (text: KOH), 3 µM compound", "description": "Cells were seeded at a density of 4 × 10^3 cells/well into 96-wells black plates. After 24 h the cells were loaded with 5 µM CM-H2DCFDA in M199 without phenol red for 20 min. The dye excess was washed with M199 without phenol red and immediately after, cells were treated acutely with different concentrations of the test compounds in M199 without phenol red. To generate radicals, 100 µM H2O2 or 1 mM KO2 were injected to the compound-treated cells and CM-DCF fluorescence was measured every 2 min for 70 cycles on a scanning microplate reader (BMG FLUOstar Omega; Ex. 480 nm, Em. 520 nm). The area under the generated curves was calculated using the Origin 6.1 software (OriginLab)."}, "[6]": {"tested_on": "primary human skin fibroblasts", "assay": "CumOOH induced lipid peroxidation (bodipy 581/591 C11)", "format": "cell-based", "details": "30 µM cumOOH, bodipy 581/591 C11", "description": "The cells were seeded at a density of 3 × 10^3 cells/well into 96-wells black plates. After 24 h, the cells were coincubated with 500 nM bodipy 581/591 C11 (#D3861, Thermo Fisher) and different amounts of KH compound in M199 without phenol red. This medium was used in all subsequent washes and incubations. After 30 min. incubation the cells were washed twice and subsequently incubated with 30 μM cumene hydroperoxide (cumOOH). For background subtractions cells with the dye but without cumOOH were used. After 30 minutes incubation and two washes oxidized bodipy 581/591 C11 was quantified on an automated bioimager (BD Pathway 855), by using a 20x objective and Ex. 488/10 nm, Em. FURA/FITC. Total cellular fluorescence per well was normalized on the number of cellular pixels/well and normalized on the incubation with probe and cumOOH but without compound (vehicle set as 100%). Experiments were performed at least three times with 3 wells per experiment."}}, "note": "“Also recorded” adds a separate entry of the source.", "data": [{"molecule": "CCCCS(=N)(=O)CCC(N)C(=O)O", "note": "(centres unmarked) [BSO, Buthionine sulphoximine]", "values": [{"measurement": "IC50", "setting": "P4 cell line [1]; 24 h BSO up to 100 µM", "value": 3.8, "unit": "µM"}, {"measurement": "IC50 BSO", "setting": "C1 control cell line", "value": "n.s."}, {"measurement": "IC50 BSO", "setting": "C2 control cell line", "value": "n.s."}, {"measurement": "IC50 BSO", "setting": "C3 control cell line", "value": "n.s."}, {"measurement": "IC50 BSO", "setting": "[2]", "value": "n.s."}, {"measurement": "IC50 BSO", "setting": "[3]", "value": "n.s."}]}, {"molecule": "COc1c(C)c(C)c2c(c1C)CC[C@@](C)(C(=O)N[C@@H]1CCCNC1)O2", "note": "[KH176i]", "values": [{"measurement": "Activity in the ROS assay", "setting": "P4 cell line [4]; P4 cells, 24 h compound treatment", "value": "inactive"}, {"measurement": "Rescue of cell viability from BSO-induced death", "setting": "P4 cell line [1]; 200 µM BSO, 24 h", "value": "unable to rescue cell viability"}, {"measurement": "Reduction of H2O2-induced radicals and O2.- (CM-H2DCFDA oxidation)", "setting": "P4 cell line [5]", "value": "not"}, {"measurement": "Effect on CumOOH induced lipid peroxidation", "setting": "[6]", "value": "no effect; also recorded: no activity"}]}, {"molecule": "Cc1c(C)c2c(c(C)c1O)CCC(C)(C(=O)O)O2", "note": "(centres unmarked) [Trolox, reference compound]", "values": [{"measurement": "IC50", "setting": "P4 cell line [4]; Homo sapiens, P4 cells, 72 h treatment", "value": 187, "unit": "µM"}, {"measurement": "EC50", "setting": "P4 cell line [1]; Homo sapiens, 200 µM BSO, 24 h", "value": 38, "unit": "µM"}]}, {"molecule": "auranofin [AFN, reference compound]", "values": [{"measurement": "Effect of thioredoxin reductase inhibition on ROS reduction by KH176m", "setting": "P4 cell line [4]; 24 hours, 100 nM AFN with 1 µM KH176m, DCFH-DA", "value": "did not affect the capacity of KH176m to reduce the DCFH-DA signal"}, {"measurement": "Effect of thioredoxin reductase inhibition on rescue by KH176(m)", "setting": "P4 cell line [1]; 200 µM BSO, 100 nM AFN", "value": "decrease of the capacity of KH176(m) to rescue the cells"}]}]}
